In data set [1] the test system is TNF. Kind of data set: Modulation of TNF production in Colon 38 tumour-bearing mice (serum and tumour, ELISA). The class given is in vivo. The following applies: 3 h. The protocol:
Mice with Colon 38 tumours, approximately 5-7 mm in diameter, were divided into groups of 5. One group was untreated. Other groups were treated with DMXAA (25 mg/kg) alone; DMXAA (25 mg/kg)+thalidomide (100 mg/kg), DMXAA (25 mg/kg)+PG (100 mg/kg), DMXAA (25 mg/kg)+PiG (100 mg/kg), DMXAA (25 mg/kg)+CG (100 mg/kg), DMXAA (25 mg/kg)+thalidomide (20 mg/kg), DMXAA (25 mg/kg)+CG (20 mg/kg), and thalidomide, PG, PiG or CG only at 100 and 200 mg/kg. Three hours after treatment, mice were anaesthetized with halothane (NZ Pharmacology Ltd., Christchurch, New Zealand), and blood was collected from the ocular sinus and tumours were excised. Blood was coagulated overnight at 4° C., and then centrifuged for 30 min at 2,000×g and 4° C., and the serum was removed and stored at −80° C. until use. Tumour tissues were weighed and homogenized in 1.5 ml α-minimal essential medium (Gibco, Grand Island, N.Y., USA). The homogenates were centrifuged (2,000×g, 30 min, 4° C.) and supernatant was removed and re-centrifuged (14,000×g, 30 min, 4° C.). The final supernatants were removed and kept at −80° C. until use. TNF levels in serum and supernatants derived from tumour homogenates were assayed for TNF as described in section 4 (below).
(§1) TNF was assayed using a commercially available ELISA kit (OpEIA human or murine TNF kit, PharMingen, San Diego, Calif., USA), according to the manufacturer's instructions. Briefly, samples (100 μl/well) in duplicate together with a serial dilution of TNF (31.25-2000 pg/ml) for the standard curve, were added to flat-bottom 96-well plates pre-coated with immobilised monoclonal anti-TNF antibody and incubated at room temperature for 2 h. The wells were then washed, biotinylated polyclonal antibody to TNF was added, followed by peroxidase-labelled streptavidin, and incubated at room temperature for 1 h. The wells were washed again, and the substrate, tetramethylbenzidine and hydrogen peroxide was added and after 10 min the reaction was stopped with 2 N sulphuric acid. The absorbance at 450 nm was determined using a microtitre plate reader.

In data set [2] the test system is TNF. The experiment in a line: LPS-induced TNF production by HPBL in culture. The note with it: HPBL, LPS 100 pg/ml, 12 h; all concentrations tested (PG, PiG: 1, 5, 25 μg/ml); FIG. 5. The format is cell-based, human. The protocol: Blood (20 ml) each from seven healthy volunteers was collected into heparinized tubes, and was overlayed on top of 10 ml of Ficoll-Paque Plus (Amersham Biosciences AB, Uppsala, Sweden) in 50 ml Falcon polypropylene conical tubes (Becton Dickson Labware, Franklin Lakes, N.J.). The tubes were centrifuged for 30 min at 300×g and 4° C., and the layer of cells was removed and re-suspended at 1×10^6 cells/ml in A-MEM medium supplemented with foetal bovine serum (Moregate BioTech Ltd, Hamilton, New Zealand) (10% v/v), streptomycin sulphate (100 μg/ml) and penicillin-G (100 units/ml) (Sigma, St Louis, Mo., USA). Cells were added to a 24-well plate (Nunc, Kamstrup, Roskilde, Denmark) with LPS (Escherichia coli serotype 055:B5; Sigma, St. Louis, Mo., USA) plus thalidomide or CG at 0.04, 0.2, 1, 5, 25 & 100 μg/ml; or PG or PiG at 1, 5 & 25 μg/ml in a final volume of 1 ml. Wells containing cells only and cells plus LPS only were included as controls. After 12 hours of incubation, supernatants were removed and assayed immediately for TNF as described in section 4.
as §1

In data set [3] the test system is ECV304 cells. The experiment in a line: Inhibition of tube formation of ECV304 cells in Matrigel. The class given is cell-based, human. The protocol: Each well in a 24-well plate was coated with 300 μl of Matrigel (Becton Dickinson, San Jose, Calif., USA) which was allowed to solidified at 37° C. for 1 h. […] After 15-18 h of incubation at 37° C. at 5% CO2, the culture supernatant was aspirated. The cells were fixed and stained using Diff-Quick staining kit (Dade AG, Dudingen, Switzerland) according to the manufacturer's instructions. After removal of the staining solution the stained cells in each well were photographed along with a measuring ruler placed at the bottom edge of the photographing field (Olympus Camedia C-5050 professional digital camera, Olympus Optical, Tokyo, Japan). The total length of the tubes formed in the photographs was measured and divided by the area of the field (mm/mm^2).

Data set [4] deals with ECV304 cells. Kind of data set: MTT cytotoxicity assay. The note with it: 18 h, 2-250/g/ml, vs untreated or DMSO-treated cultures. The class given is cell-based, human. The protocol: The 3-(4,5-dimethylthiazol-2-yl)-2,5-diphenyl tetrazolium bromide (MTT) assay, which measures mitochondrial metabolic activity, was used to determine cell viability (Mosmann, 1983). Cells (4×10^3/well) were cultured with various concentrations of thalidomide, CG, PG and PiG in a final volume of 100 μl M199 medium (Gibco, Grand Island, N.Y., USA) supplemented with 10% foetal bovine serum ([…] streptomycin sulphate and 100 units/ml penicillin-G (Sigma, St Louis, Calif., USA) in flat-bottomed 96-well plates at 37° C. at 5% CO2 for 18 h. At the end of the incubation period, 10 μl of MTT (Sigma, St. Louis, Mo., 5 mg/ml in PBS) was added to each well, and the cells were further incubated for 2 h. The supernatants were then removed and the formazan crystals in the cells were dissolved by the addition of 100 μl of DMSO per well, and the absorbance at 590 nm was read using a plate reader. Each concentration of drug was tested in triplicate wells, and the mean ±standard error of the mean (SEM) was calculated.
For orientation: Tetrazolium assays rely on reduction of a dye to a coloured formazan, in cell work by metabolically active cells.

In another data set the test system is Colon 38 tumours. Kind of data set: Tumour growth delay, Colon 38 tumours in mice, combination with DMXAA. The following applies: for tumour volumes at 21 days after treatment compared with DMXAA alone: FIG. 2; for inhibition of tumour growth compared with DMXAA alone: 100 mg/kg i.p. co-administered with DMXAA 25 mg/kg, FIG. 1A. The format is in vivo. An excerpt:
Mice (C57B1/6 bred at the Animal Resources Unit, University of Auckland, New Zealand) were implanted with Colon 38 tumours, obtained originally from the Mason Research Institute (Auckland, New Zewaland) by transferring 1 mm^3 pieces of the tumour into a subcutaneous opening in the left flank of anaesthetized mice. The mice with tumours were used for growth delay experiments when tumours had reached approximately 3-5 mm in diameter. Mice were divided into 10 groups, an untreated control group, a group treated intraperitoneally (i.p.) with DMXAA (5,6-dimethylxanthenone-4-acetic acid, synthesized at the Auckland Cancer Society Research Centre—ACSRC (Auckland, New Zealand) at 25 mg/kg only, and 8 groups treated with DMXAA together with the hydrolytic thalidomide metabolites PG, PiG, CG also synthesized at the ACSRC as previously described (Lu et al, 2003), or thalidomide at 100 mg/kg, or together with CG or thalidomide at 20 mg/kg or 4 mg/kg. DMXAA was dissolved in saline at 2.5 mg/ml and injected i.p. into mice in a volume of 10 μl/g body weight. Thalidomide, PG, PiG and CG were dissolved in dimethylsulphoxide at 40, 8 or 1.6 mg/ml (for dosages of 100, 20, 4 mg/kg respectively) and injected i.p. in a volume of 2.5 μl/g body weight. Tumours were measured 2-3 times weekly after treatment and tumour volumes were calculated as 0.52×a^2×b, where a and b are the minor and major axes of the tumour. The arithmetic means and standard errors were calculated for each point, counting cured animals as having zero tumour volume, and expressed as fractions of the pre-treatment volume. Growth delay was determined as the difference in the number of days required for the tumour to reach four times the pre-treatment volume.

The mark [5] stands for this setting: 100 mg/kg co-administered with DMXAA 25 mg/kg, FIG. 3A.
The mark [6] stands for this setting: 100 mg/kg co-administered with DMXAA 25 mg/kg, FIG. 3B.
[7] abbreviates: all concentrations tested, FIG. 6.
Setting [8] is: 100 mg/kg co-administered with DMXAA 25 mg/kg.

On to `Cc1ccc2c(=O)c3cccc(CC(=O)O)c3oc2c1C` [DMXAA, 5,6-dimethylxanthenone-4-acetic acid, reference compound], for which the “increase in serum TNF activity above control untreated mice” value with TNF [1] (DMXAA alone 25 mg/kg, FIG. 3A) amounted to 20 fold. Moreover, the “increase in tumour TNF activity above control untreated mice” value in the data set with TNF [1] (DMXAA alone 25 mg/kg, FIG. 3B) worked out at 50 fold.
For the molecule `NC(=O)C(CCC(=O)O)N1C(=O)c2ccccc2C1=O` (stereo not shown) [PiG, 5-Amino-4-(1,3-dioxo-1,3-dihydro-2H-isoindol-2-yl)-5-oxopentanoic acid], the “effect on LPS-induced TNF production” value with TNF [2] is given as “no significant effect”. In the data set with TNF [1] (setting [5]), the “effect on DMXAA-induced serum TNF level” value is on record as “had no effect”. Besides, the “effect on DMXAA-induced tumour TNF level” value with TNF [1] (setting [6]) is recorded as “had no effect”. Moreover, the “inhibition of tube formation” value in the data set with ECV304 cells [3] (setting [7]) is “did not show any inhibition”. Besides, the “toxicity (cell viability, MTT)” value in the data set on ECV304 cells [4] was “No toxicity was observed”. For the same molecule, the “tumour volumes at 21 days after treatment compared with DMXAA alone” value (from here on “tumour volumes … compared with DMXAA alone”) in the data set with Colon 38 tumours (setting [8]) is given as “no significant difference in tumour volumes”. Besides, the “inhibition of tumour growth compared with DMXAA alone” value in the data set on Colon 38 tumours is recorded as “did not inhibit tumour growth above that of DMXAA alone”.
Regarding `NC(=O)CCC(C(=O)O)N1C(=O)c2ccccc2C1=O` (stereo not shown) [PG, 5-Amino-2-(1,3-dioxo-1,3-dihydro-2H-isoindol-2-yl)-5-oxopentanoic acid], the “effect on LPS-induced TNF production” value in the data set with TNF [2] was “no significant effect”. For the same molecule, in the data set with TNF [1] (setting [5]), the “effect on DMXAA-induced serum TNF level” value was “had no effect”. In addition, the “effect on DMXAA-induced tumour TNF level” value with TNF [1] (setting [6]) is reported as “had no effect”. Besides, the “inhibition of tube formation” value with ECV304 cells [3] (setting [7]) is recorded as “did not show any inhibition”. Besides, the “toxicity (cell viability, MTT)” value with ECV304 cells [4] is listed as “No toxicity was observed”. Besides, the “tumour volumes … compared with DMXAA alone” value in the data set with Colon 38 tumours (setting [8]) was “no significant difference in tumour volumes”. In the data set on Colon 38 tumours, the “inhibition of tumour growth compared with DMXAA alone” value is recorded as “did not inhibit tumour growth above that of DMXAA alone”.
By inhibition is commonly meant the share of the control response that was lost under treatment. Regarding `O=C1CCC(N2C(=O)c3ccccc3C2=O)C(=O)N1` (stereo not drawn) [thalidomide, α-phthalimidoglutarimide], the “effect on LPS-induced TNF production” value with TNF [2] is recorded as “significantly decreased LPS-induced TNF levels in a dose-dependent manner”. The “effect on DMXAA-induced serum TNF level” value in the data set with TNF [1] (20 mg/kg co-administered with DMXAA 25 mg/kg, FIG. 3A) is on record as “reduced DMXAA-induced TNF levels in serum”; in the data set on TNF [1] (setting [5]), “reduced DMXAA-induced TNF levels in serum”. The “effect on DMXAA-induced tumour TNF level” value with TNF [1] (20 mg/kg co-administered with DMXAA 25 mg/kg, FIG. 3B) is given as “no significant effect”; in the data set with TNF [1] (setting [6]), “no significant effect”. Further, the “inhibition of tube formation” value in the data set with ECV304 cells [3] (250 μg/ml, FIGS. 6 & 7) was “Near complete inhibition”. Moreover, the inhibition at 2 µg/mL with ECV304 cells [3] (Homo sapiens, ECV-304, lowest concentration tested, 2 μg/ml, FIG. 7) was in the range of 38 to 41%. Besides, in the data set with ECV304 cells [4], the “toxicity (cell viability, MTT)” value was “No toxicity was observed”. Also, the “potentiation of DMXAA-induced anti-tumour effects” value with Colon 38 tumours (4 mg/kg co-administered with DMXAA 25 mg/kg, FIG. 1C) is recorded as “neither CG nor thalidomide showed potentiation”. The results for the “tumour volumes … compared with DMXAA alone” value in the data set with Colon 38 tumours (4 mg/kg co-administered with DMXAA 25 mg/kg) and in the data set with Colon 38 tumours (setting [8]) were “no significant difference” and “significantly smaller tumour volumes than those treated by DMXAA alone”, respectively. Also, the “inhibition of tumour growth compared with DMXAA alone” value in the data set with Colon 38 tumours is recorded as “greater inhibition of tumour growth than that of DMXAA alone”.

Values taken from patent US20080167272A1, “Thalidomide metabolites and methods of use” (Auckland Uniservices Limited, priority 2005, published 2008).
